The values that follow are results of earlier work, collected in EP2156182B1, “DETECTION OF AN ANALYTE IN A SAMPLE OF HEMOLYZED WHOLE BLOOD” (Roche Diagnostics GmbH, priority 2007, dated 2008).

The conditions of series [1]: therapeutic range, whole blood drug monitoring.
The conditions of series [2]: relative to cyclosporin.

For `C=CC[C@@H]1/C=C(\C)C[C@H](C)C[C@H](OC)[C@H]2O[C@@](O)(C(=O)C(=O)N3CCCC[C@H]3C(=O)O[C@H](/C(C)=C/[C@@H]3CC[C@@H](O)[C@H](OC)C3)[C@H](C)[C@@H](O)CC1=O)[C@H](C)C[C@@H]2OC` [Tacrolimus, tacrolimus], the therapeutic trough concentration in series [1] was 5 to 20 µg/L. Besides, the “times more potent than cyclosporin in vitro” value in series [2] is reported as “up to 100 times”.
Turning to `CO[C@H]1C[C@@H]2CC[C@@H](C)[C@@](O)(O2)C(=O)C(=O)N2CCCC[C@H]2C(=O)O[C@H]([C@H](C)C[C@@H]2CC[C@@H](O)[C@H](OC)C2)CC(=O)[C@H](C)/C=C(\C)[C@@H](O)[C@@H](OC)C(=O)[C@H](C)C[C@H](C)/C=C/C=C/C=C/1C` [sirolimus], the therapeutic trough concentration in series [1] is 5 to 15 µg/L.
